In US9345703B2, “Kappa opioid receptor effectors and uses thereof” (University of Kansas, priority 2011, dated 2016):
Marks after values point to notes of the source that are not given here.

Key:
[1] = test system: Fa2N-4 immortalized human hepatocytes; assay: Hepatocyte toxicity; settings: read-out: LC50; Fa2N-4 hepatocytes
[2] = target: T1, KOP receptor (Homo sapiens, UniProt P41145); assay: 35S-GTPγS coupling, inhibition; assay type: biochemical
[3] = target: T1, KOP receptor; assay: ERK 1/2 activation, inhibition; assay type: cell-based

T1 sequence (P41145 whole entry): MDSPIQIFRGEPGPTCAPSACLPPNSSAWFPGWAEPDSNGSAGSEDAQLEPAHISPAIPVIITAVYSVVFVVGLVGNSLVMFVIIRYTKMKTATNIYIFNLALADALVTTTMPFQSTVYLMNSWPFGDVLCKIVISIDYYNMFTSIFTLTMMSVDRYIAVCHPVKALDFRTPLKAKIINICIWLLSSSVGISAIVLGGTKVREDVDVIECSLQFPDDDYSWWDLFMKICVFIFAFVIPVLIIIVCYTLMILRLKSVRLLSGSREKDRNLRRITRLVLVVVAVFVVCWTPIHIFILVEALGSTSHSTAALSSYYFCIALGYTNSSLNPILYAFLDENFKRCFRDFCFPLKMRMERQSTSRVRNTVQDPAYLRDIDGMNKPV

Row | Structure (SMILES) | CC50 [1] | Imax (% NBNI) [2] | Imax (% NBNI) [3]
1 | Clc1ccc(CSc2nnc(-c3ccccn3)n2Cc2ccco2)cc1Cl [Compound 2{8}] | > 50 µM | – | –
2 | COc1ccc(N2CCN(CCCNC(=O)Cn3c(=O)c4cccn4c4c(C)ccnc43)CC2)cc1 [Compound 1{3}, N-(3-(4-(4-Methoxyphenyl)piperazin-1-yl)propyl)-2-(1-methyl-6-oxopyrido[2,3-e]pyrrolo[1,2-a]pyrazin-5(6H)-yl)acetamide] | – | 117 ± 5^a % NBNI | 90 ± 2^a % NBNI
